Measurements: patent US20230000949A1, “SOLID COMPOSITIONS COMPRISING A PCSK9 INHIBITOR AND A SALT OF N-(8-(2-HYDROXYBENZOYL)AMINO)CAPRYLIC ACID” (Novo Nordisk A/S, priority 2019, published 2023)

Details: pH 6

Effect on SNAC solubility: concentration dependent effect
SMILES: NC(=O)c1cccnc1 [Nicotinamide]
